This note sets out measurements from ChEMBL document CHEMBL3045612, “Solvent- and catalyst-free synthesis of bis-adducts of 3-formylchromone as potential antimicrobial agents” (2013).

Values after ≈ are worked out from the molar mass of the structure shown.

Experiment [1] relates to Klebsiella pneumoniae. In words: Antibacterial activity against Klebsiella pneumoniae clinical isolate assessed as growth inhibition after 24 hr by disk diffusion assay. In kind it is functional. Background: Agar diffusion results depend on both activity and mobility in agar.
The test system of experiment [2] is Staphylococcus aureus. The experiment can be described thus: Antibacterial activity against methicillin-resistant Staphylococcus aureus assessed as growth inhibition after 24 hr by disk diffusion assay. In kind it is functional.
The subject of experiment [3] is Talaromyces marneffei. The experiment can be described thus: Antifungal activity against Talaromyces marneffei assessed as growth inhibition after 3 to 4 days by disk diffusion assay. The class given is functional.
The subject of experiment [4] is Pseudomonas aeruginosa. The experiment can be described thus: Bactericidal activity against Pseudomonas aeruginosa ATCC 27853 after 18 to 24 hr. In kind it is functional.
Experiment [5] deals with Aspergillus fumigatus. In words: Fungicidal activity against Aspergillus fumigatus after 48 hr. The class given is functional.
Experiment [6] has as its system Trichophyton mentagrophytes. The experiment can be described thus: Antifungal activity against Trichophyton mentagrophytes assessed as growth inhibition after 3 to 4 days by disk diffusion assay. In kind it is functional.
For experiment [7], the system named is Pseudomonas aeruginosa. The experiment can be described thus: Antibacterial activity against Pseudomonas aeruginosa ATCC 27853 assessed as growth inhibition after 24 hr by disk diffusion assay. The class given is functional.
Experiment [8] deals with Streptococcus pyogenes. In words: Antibacterial activity against Streptococcus pyogenes assessed as growth inhibition after 24 hr by macrodilution method. The class given is functional.
For experiment [9], the system named is Klebsiella pneumoniae. In words: Antibacterial activity against Klebsiella pneumoniae clinical isolate assessed as growth inhibition after 24 hr by macrodilution method. The class given is functional.
Experiment [10] relates to Escherichia coli. In words: Bactericidal activity against Escherichia coli ATCC 25922 after 18 to 24 hr. In kind it is functional.
For experiment [11], the system named is Candida albicans. In words: Antifungal activity against Candida albicans assessed as growth inhibition after 3 to 4 days by disk diffusion assay. The class given is functional.
The subject of experiment [12] is Trichophyton mentagrophytes. The experiment can be described thus: Fungicidal activity against Trichophyton mentagrophytes after 48 hr. The class given is functional.
Experiment [13] has as its system Candida albicans. In words: Fungicidal activity against Candida albicans after 48 hr. The class given is functional.
The subject of experiment [14] is Aspergillus fumigatus. The experiment can be described thus: Antifungal activity against Aspergillus fumigatus assessed as growth inhibition after 48 hr by macrodilution method. In kind it is functional.
The test system of experiment [15] is Escherichia coli. In words: Antibacterial activity against Escherichia coli ATCC 25922 assessed as growth inhibition after 24 hr by macrodilution method. The class given is functional. The note with it: ATCC 25922, 24 h.
For experiment [16], the system named is Talaromyces marneffei. The experiment can be described thus: Fungicidal activity against Talaromyces marneffei after 48 hr. In kind it is functional.
Experiment [17] relates to Escherichia coli. The experiment can be described thus: Antibacterial activity against Escherichia coli ATCC 25922 assessed as growth inhibition after 24 hr by disk diffusion assay. In kind it is functional.
In experiment [18] the test system is Talaromyces marneffei. The experiment can be described thus: Antifungal activity against Talaromyces marneffei assessed as growth inhibition after 48 hr by macrodilution method. The class given is functional.
Experiment [19] has as its system Staphylococcus aureus. In words: Antibacterial activity against methicillin-resistant Staphylococcus aureus assessed as growth inhibition after 24 hr by macrodilution method. The class given is functional.
The test system of experiment [20] is Staphylococcus aureus. The experiment can be described thus: Bactericidal activity against methicillin-resistant Staphylococcus aureus after 18 to 24 hr. The class given is functional.
The subject of experiment [21] is Klebsiella pneumoniae. The experiment can be described thus: Bactericidal activity against Klebsiella pneumoniae clinical isolate after 18 to 24 hr. In kind it is functional.
Experiment [22] relates to Aspergillus fumigatus. In words: Antifungal activity against Aspergillus fumigatus assessed as growth inhibition after 3 to 4 days by disk diffusion assay. In kind it is functional.
Experiment [23] concerns Pseudomonas aeruginosa. The experiment can be described thus: Antibacterial activity against Pseudomonas aeruginosa ATCC 27853 assessed as growth inhibition after 24 hr by macrodilution method. The class given is functional. The note with it: ATCC 27853, 24 h.
The test system of experiment [24] is Streptococcus pyogenes. In words: Antibacterial activity against Streptococcus pyogenes assessed as growth inhibition after 24 hr by disk diffusion assay. In kind it is functional.
The test system of experiment [25] is Streptococcus pyogenes. The experiment can be described thus: Bactericidal activity against Streptococcus pyogenes after 18 to 24 hr. In kind it is functional.
The test system of experiment [26] is Candida albicans. In words: Antifungal activity against Candida albicans assessed as growth inhibition after 48 hr by macrodilution method. In kind it is functional.
For experiment [27], the system named is Trichophyton mentagrophytes. The experiment can be described thus: Antifungal activity against Trichophyton mentagrophytes assessed as growth inhibition after 48 hr by macrodilution method. In kind it is functional.
For experiment [28], the system named is Pseudomonas aeruginosa. The experiment can be described thus: microbe, parasite or virus in culture. To be noted: ATCC 27853, 24 h, read-out: DIZ.
Description: Antibacterial activity against Pseudomonas aeruginosa ATCC 27853 assessed as growth inhibition at 30 ug after 24 hr by halo zone test
The subject of experiment [29] is Staphylococcus aureus. The experiment can be described thus: Antibacterial activity against methicillin-resistant Staphylococcus aureus assessed as growth inhibition at 30 ug after 24 hr by halo zone test. To be noted: read-out: DIZ.
In experiment [30] the test system is Escherichia coli. In words: microbe, parasite or virus in culture. The note with it: ATCC 25922, 24 h, read-out: DIZ.
Description: Antibacterial activity against Escherichia coli ATCC 25922 assessed as growth inhibition at 30 ug after 24 hr by halo zone test
Experiment [31] has as its system Aspergillus fumigatus. The experiment can be described thus: Antifungal activity against Aspergillus fumigatus assessed as growth inhibition after 3 to 4 days by halo zone test. In kind it is functional.
Experiment [32] deals with Candida albicans. The experiment can be described thus: Antifungal activity against Candida albicans assessed as growth inhibition after 3 to 4 days by halo zone test. The class given is functional.
Experiment [33] has as its system Trichophyton mentagrophytes. In words: Antifungal activity against Trichophyton mentagrophytes assessed as growth inhibition after 3 to 4 days by halo zone test. The class given is functional.
In experiment [34] the test system is Talaromyces marneffei. The experiment can be described thus: Antifungal activity against Talaromyces marneffei assessed as growth inhibition after 3 to 4 days by halo zone test. In kind it is functional.

With `Cc1cc(O)c(C(c2c(O)cc(C)oc2=O)c2coc3ccccc3c2=O)c(=O)o1`, the “diameter of the inhibition zone (DIZ)” value is on record as 17.2 mm in experiment [1]; 18.5 mm in [2]; 14.2 mm in experiment [3]; 17.8 mm in [6]; 21.2 mm in experiment [7]; 24.1 mm in [11]. In addition, the figures for the “diameter of the inhibition zone (DIZ)” value in experiment [17], in experiment [22] and in [24] were 18.6 mm, 21.3 mm and 19.1 mm, respectively. Besides, the MBC in experiment [4], in experiment [10], in [20], in experiment [21] and in [25] was 50 mg/L (≈ 122 µM) each time. Besides, the MFC in [5], in experiment [12], in [13] and in [16] was 50 mg/L (≈ 122 µM) throughout. The minimum inhibitory concentration (MIC) was determined as 25 mg/L (≈ 61.2 µM) in [8]; 25 mg/L (≈ 61.2 µM) in experiment [9]; 12.5 mg/L (≈ 30.6 µM) in [14]; 25 mg/L (≈ 61.2 µM) in [15]; 25 mg/L (≈ 61.2 µM) in experiment [18]; 25 mg/L (≈ 61.2 µM) in experiment [19]. The values for the MIC in experiment [23], in experiment [26] and in [27] were 12.5 mg/L (≈ 30.6 µM), 12.5 mg/L (≈ 30.6 µM) and 25 mg/L (≈ 61.2 µM), respectively.
As for `Cc1cc2oc(=O)c(C(c3c(O)c4cc(C)c(C)cc4oc3=O)c3coc4ccccc4c3=O)c(O)c2cc1C`, the “diameter of the inhibition zone (DIZ)” value in [1] is recorded as 19.3 mm; in [2] it was 20.7 mm; in experiment [3], 14.8 mm; in experiment [6], 19.4 mm; in experiment [7] it was 23.3 mm; in [11], 27.2 mm. Further, the “diameter of the inhibition zone (DIZ)” value in [17] turned out to be 20.8 mm; in [22], 22.1 mm; in experiment [24], 21.2 mm. Further, the MBC turned out to be 25 mg/L (≈ 46.6 µM) in experiment [4]; 50 mg/L (≈ 93.2 µM) in experiment [10]; 25 mg/L (≈ 46.6 µM) in experiment [20]; 50 mg/L (≈ 93.2 µM) in experiment [21]; 25 mg/L (≈ 46.6 µM) in experiment [25]. Moreover, the MFC in [5] was found to be 25 mg/L (≈ 46.6 µM); in experiment [12], 50 mg/L (≈ 93.2 µM); in [13] it was 25 mg/L (≈ 46.6 µM); in [16], 25 mg/L (≈ 46.6 µM). Also, the MIC in experiment [8] stood at 12.5 mg/L (≈ 23.3 µM); in experiment [9], 12.5 mg/L (≈ 23.3 µM); in experiment [14], 12.5 mg/L (≈ 23.3 µM); in experiment [15], 25 mg/L (≈ 46.6 µM); in experiment [18] it was 12.5 mg/L (≈ 23.3 µM); in [19] it was 12.5 mg/L (≈ 23.3 µM). Besides, the MIC in experiment [23], in [26] and in [27] was 12.5 mg/L (≈ 23.3 µM) in each case.
Regarding `O=c1oc2ccccc2c(O)c1C(c1c(O)c2ccccc2oc1=O)c1coc2ccccc2c1=O`, the “diameter of the inhibition zone (DIZ)” value in experiment [1] worked out at 17.3 mm; in experiment [2] it was 18.1 mm; in [3] it was 13.1 mm; in experiment [6], 19.3 mm; in [7], 26.4 mm; in [11], 19.1 mm. Besides, the entries for the “diameter of the inhibition zone (DIZ)” value in experiment [17], in [22] and in experiment [24] were 22.1 mm, 16.7 mm and 21.5 mm, respectively. Further, the MBC in experiment [4], in experiment [10], in experiment [20], in experiment [21] and in experiment [25] was 50 mg/L (≈ 104 µM) in each case. Further, the MFC in experiment [5] turned out to be 50 mg/L (≈ 104 µM); in [12], 50 mg/L (≈ 104 µM); in [13], 100 mg/L (≈ 208 µM); in experiment [16], 100 mg/L (≈ 208 µM). Also, the MIC stood at 25 mg/L (≈ 52 µM) in experiment [8]; 12.5 mg/L (≈ 26 µM) in experiment [9]; 25 mg/L (≈ 52 µM) in experiment [14]; 25 mg/L (≈ 52 µM) in experiment [15]; 25 mg/L (≈ 52 µM) in experiment [18]; 25 mg/L (≈ 52 µM) in [19]. For the same compound, the MIC in [23], in [26] and in [27] was 25 mg/L (≈ 52 µM) each time.
As for `Cc1[nH]n(-c2ccccc2)c(=O)c1C(c1coc2ccccc2c1=O)c1c(C)[nH]n(-c2ccccc2)c1=O`, the “diameter of the inhibition zone (DIZ)” value is reported as 14.5 mm in [1]; 15.6 mm in experiment [2]; 14.3 mm in experiment [3]; 18.1 mm in [6]; 13.1 mm in experiment [7]; 23.9 mm in experiment [11]. In addition, the “diameter of the inhibition zone (DIZ)” value in experiment [17] stood at 15.5 mm; in experiment [22], 20.7 mm; in experiment [24] it was 16.1 mm. Also, the MBC in [4] came to 100 mg/L (≈ 198 µM); in experiment [10], 100 mg/L (≈ 198 µM); in experiment [20] it was 50 mg/L (≈ 99.1 µM); in experiment [21], 100 mg/L (≈ 198 µM); in experiment [25], 50 mg/L (≈ 99.1 µM). Moreover, the MFC in experiment [5] is 50 mg/L (≈ 99.1 µM); in [12] it was 50 mg/L (≈ 99.1 µM); in [13], 50 mg/L (≈ 99.1 µM); in experiment [16], 100 mg/L (≈ 198 µM). In addition, the MIC in experiment [8], in experiment [9], in [14], in experiment [15], in experiment [18] and in experiment [19] was 25 mg/L (≈ 49.5 µM) throughout. Besides, the MIC in experiment [23], in [26] and in [27] was 25 mg/L (≈ 49.5 µM) throughout.
As to `O=C(O)c1cn(C2CC2)c2cc(N3CCNCC3)c(F)cc2c1=O` [CIPROFLOXACIN], the zone of inhibition at 30 µg/disc in [28] was 32 mm; in experiment [29] it was 22 mm; in experiment [30], 27 mm.
In the case of `COC1=CC(=O)C[C@@H](C)[C@]12Oc1c(Cl)c(OC)cc(OC)c1C2=O` [GRISEOFULVIN], the MFC in experiment [5] came out at 12.5 mg/L (≈ 35.4 µM); in [12] it was 25 mg/L (≈ 70.9 µM); in experiment [13], 25 mg/L (≈ 70.9 µM); in [16], 25 mg/L (≈ 70.9 µM). The MIC in experiment [14] is 12.5 mg/L (≈ 35.4 µM); in [18], 12.5 mg/L (≈ 35.4 µM); in [26] it was 6.25 mg/L (≈ 17.7 µM); in experiment [27] it was 6.25 mg/L (≈ 17.7 µM). The “diameter of the inhibition zone (DIZ)” value was found to be 27 mm in experiment [31], 30 mm in experiment [32], 24 mm in [33] and 20 mm in [34].

Usually MBC stands for the smallest concentration meeting the test's criterion for killing. One may read the MFC as the lowest tested concentration that kills the fungus rather than only halting it. Usually MIC stands for the smallest concentration in the dilution series that meets the test's criterion for growth inhibition.
